Results on two molecules are retold here after article PMC9063842, “A GH115 α-glucuronidase structure reveals dimerization-mediated substrate binding and a proton wire potentially important for catalysis” (Acta Crystallographica. Section D, Structural Biology, 2022).

In one data set the target is T1, wtsAgu115A (uncultured bacterium, UniProt A0ACD6BAS3).
T1 construct: mature protein without 19-residue signal peptide, pET-28a (NcoI/XhoI), His-tag purified, E. coli BL21(DE3) pLysS; homodimer
The experiment in a line: X-ray crystal structure, crystal soaking. It is filed as binding. To be noted: 2.65 A; 0.2 M CaCl2, HEPES pH 7.5, 28% PEG 400; five of six xylose units visible; active site at dimer interface; Ca2+ near site; wild type inferred (Asp303 side chain H-bonds the ligand).

Data set [1] deals with the molecule itself. The experiment in a line: SEC; analytical gel filtration, HiLoad 16/60 Superdex G200, 10 mM sodium acetate, 150 mM NaCl pH 6, 0.5 ml/min; standards aldolase (158 kDa), conalbumin (75 kDa), ovalbumin (44 kDa). Background: Size exclusion chromatography separates by hydrodynamic size, large species first.

For `OC1OC[C@@H](O[C@@H]2OC[C@@H](O[C@@H]3OC[C@@H](O[C@@H]4OC[C@@H](O[C@@H]5OC[C@@H](O[C@@H]6OC[C@@H](O)[C@H](O)[C@H]6O)[C@H](O)[C@H]5O)[C@H](O)[C@H]4O)[C@H](O)[C@H]3O)[C@H](O)[C@H]2O)[C@H](O)[C@H]1O` (some centres unmarked) [xylohexaose], at wtsAgu115A, the “X-ray crystal structure, crystal soaking” value is listed as “five β-1,4-linked D-xylopyranose moieties was observed in the crystal structure of wtsAgu115A soaked with xylohexaose”.

B1: wtsAgu115A (enzyme)
chain: AGDNKGITYEELNPERFTLLEKGTPTNILIDENEDQGVMIAATNLSEDFGRVSGTNAPLIFLPDNERLIIVGTLESRYIKELTENRKIKGDELKGKNEKYLMTVVDNPLPGVKEALIIAGSDKRGAIYGIYELSEQIGVSPWYDWADVPVKPQQNLSIERGSYTADEPAVTYRGIFLNDEAPALTSWVENTYGTKYGDHRFYSRVFELILRLRGNFLWPAMWDWSFYGDDPLNSKTADTMGIIMGTSHHEPMARNHQEWARNRDKYGVWDYTSNQEVIDQFFREGIERVKDTDDLITIGMRGDGDTPMPMGVKEGEDHLPSDEDNMRLLERIIKNQREIIGDVTGESPEKTPQVWAIYKEVQRYFDLGLRPPEDVIILLSDDNWGNVRRLPTEEERDHPGGWGMYYHFDYVGAPRSSKWLNISPIQNIWEQMQLTYDYGVDELWVANVGDLKPMEYPITLFLDMAWDPTRFNAENLLDHTRSFAAQQFGEDQADEAARIINLYSKYNGRVTPEMLDRNTYNLESGEWKKVSDEYIKLEAEALRQYLTLEPEQRDAYKQLILYPVQAMANLYEMYYSQAMNHKLYRENNPMANYWADRVEETFNRDAELSHDYNKVMANGKWDGMMTQKKIGYRSWNDNFPADTLPQIFRIENPEEATGGYVFTARDGVVVIEAEHYFEAKDAEEAKWTVIPYMGRTLSSIALMPYTKEVEGASLSYRMQIPDEVSEVKVHVVVKSTLPFHDPKGHEYRVGFEGGSKEIVNFNWNLNEEPENIYSVFYPTVASRVVKKDVTLDLHDTDDGFYTLTLEPLDPGIVFQKIVVDFGGYEESRLFMEESPNKRIEIE
Regarding B1, the “stoichiometry N” value in data set [1] turned out to be 2.

One may read the stoichiometry N as a count of units in the complex or per binding partner.
